Our source for the AC50 values is ChEMBL document CHEMBL5291721, “A preclinical secondary pharmacology resource illuminates target-adverse drug reaction associations of marketed drugs” (Nat Commun, 2023).

In assay [1] the target is T1, Muscarinic acetylcholine receptor M1 (Homo sapiens, UniProt P11229).
T1 sequence (P11229 whole entry): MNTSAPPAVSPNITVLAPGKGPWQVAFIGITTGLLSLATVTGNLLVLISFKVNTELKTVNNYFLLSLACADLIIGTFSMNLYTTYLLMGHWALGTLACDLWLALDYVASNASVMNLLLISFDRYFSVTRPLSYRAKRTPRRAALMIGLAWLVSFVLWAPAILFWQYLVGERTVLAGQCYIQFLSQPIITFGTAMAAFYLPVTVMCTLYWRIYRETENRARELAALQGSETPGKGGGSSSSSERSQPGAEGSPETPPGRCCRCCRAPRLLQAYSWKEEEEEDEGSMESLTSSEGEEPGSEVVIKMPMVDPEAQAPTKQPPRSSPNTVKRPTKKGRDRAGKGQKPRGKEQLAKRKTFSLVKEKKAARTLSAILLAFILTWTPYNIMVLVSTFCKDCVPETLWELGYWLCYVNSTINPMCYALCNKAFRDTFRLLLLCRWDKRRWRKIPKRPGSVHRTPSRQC
The class given is functional, cell-based.

In assay [2] the target is T1, Muscarinic acetylcholine receptor M1. In kind it is functional, cell-based. This is another data set of the same source.
Assay [3] deals with D(1A) dopamine receptor (Homo sapiens, UniProt P21728).
Chain of D(1A) dopamine receptor (P21728 whole entry): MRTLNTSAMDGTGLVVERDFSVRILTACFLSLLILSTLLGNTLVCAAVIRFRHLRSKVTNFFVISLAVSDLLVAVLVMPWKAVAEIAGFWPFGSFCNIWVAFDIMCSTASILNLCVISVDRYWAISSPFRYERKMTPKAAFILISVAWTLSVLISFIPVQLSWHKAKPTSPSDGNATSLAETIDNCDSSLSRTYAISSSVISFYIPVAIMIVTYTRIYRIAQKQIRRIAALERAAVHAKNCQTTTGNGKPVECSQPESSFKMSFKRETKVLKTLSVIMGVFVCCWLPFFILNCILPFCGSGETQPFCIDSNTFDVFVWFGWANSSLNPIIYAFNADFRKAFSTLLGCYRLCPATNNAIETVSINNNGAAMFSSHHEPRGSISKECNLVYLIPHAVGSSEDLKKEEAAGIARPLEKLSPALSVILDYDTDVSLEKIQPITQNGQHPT
The target in assay [4] is Voltage-dependent L-type calcium channel subunit alpha-1C (Homo sapiens, UniProt Q13936). The class given is functional, cell-based.
Chain of Voltage-dependent L-type calcium channel subunit alpha-1C (Q13936 whole entry): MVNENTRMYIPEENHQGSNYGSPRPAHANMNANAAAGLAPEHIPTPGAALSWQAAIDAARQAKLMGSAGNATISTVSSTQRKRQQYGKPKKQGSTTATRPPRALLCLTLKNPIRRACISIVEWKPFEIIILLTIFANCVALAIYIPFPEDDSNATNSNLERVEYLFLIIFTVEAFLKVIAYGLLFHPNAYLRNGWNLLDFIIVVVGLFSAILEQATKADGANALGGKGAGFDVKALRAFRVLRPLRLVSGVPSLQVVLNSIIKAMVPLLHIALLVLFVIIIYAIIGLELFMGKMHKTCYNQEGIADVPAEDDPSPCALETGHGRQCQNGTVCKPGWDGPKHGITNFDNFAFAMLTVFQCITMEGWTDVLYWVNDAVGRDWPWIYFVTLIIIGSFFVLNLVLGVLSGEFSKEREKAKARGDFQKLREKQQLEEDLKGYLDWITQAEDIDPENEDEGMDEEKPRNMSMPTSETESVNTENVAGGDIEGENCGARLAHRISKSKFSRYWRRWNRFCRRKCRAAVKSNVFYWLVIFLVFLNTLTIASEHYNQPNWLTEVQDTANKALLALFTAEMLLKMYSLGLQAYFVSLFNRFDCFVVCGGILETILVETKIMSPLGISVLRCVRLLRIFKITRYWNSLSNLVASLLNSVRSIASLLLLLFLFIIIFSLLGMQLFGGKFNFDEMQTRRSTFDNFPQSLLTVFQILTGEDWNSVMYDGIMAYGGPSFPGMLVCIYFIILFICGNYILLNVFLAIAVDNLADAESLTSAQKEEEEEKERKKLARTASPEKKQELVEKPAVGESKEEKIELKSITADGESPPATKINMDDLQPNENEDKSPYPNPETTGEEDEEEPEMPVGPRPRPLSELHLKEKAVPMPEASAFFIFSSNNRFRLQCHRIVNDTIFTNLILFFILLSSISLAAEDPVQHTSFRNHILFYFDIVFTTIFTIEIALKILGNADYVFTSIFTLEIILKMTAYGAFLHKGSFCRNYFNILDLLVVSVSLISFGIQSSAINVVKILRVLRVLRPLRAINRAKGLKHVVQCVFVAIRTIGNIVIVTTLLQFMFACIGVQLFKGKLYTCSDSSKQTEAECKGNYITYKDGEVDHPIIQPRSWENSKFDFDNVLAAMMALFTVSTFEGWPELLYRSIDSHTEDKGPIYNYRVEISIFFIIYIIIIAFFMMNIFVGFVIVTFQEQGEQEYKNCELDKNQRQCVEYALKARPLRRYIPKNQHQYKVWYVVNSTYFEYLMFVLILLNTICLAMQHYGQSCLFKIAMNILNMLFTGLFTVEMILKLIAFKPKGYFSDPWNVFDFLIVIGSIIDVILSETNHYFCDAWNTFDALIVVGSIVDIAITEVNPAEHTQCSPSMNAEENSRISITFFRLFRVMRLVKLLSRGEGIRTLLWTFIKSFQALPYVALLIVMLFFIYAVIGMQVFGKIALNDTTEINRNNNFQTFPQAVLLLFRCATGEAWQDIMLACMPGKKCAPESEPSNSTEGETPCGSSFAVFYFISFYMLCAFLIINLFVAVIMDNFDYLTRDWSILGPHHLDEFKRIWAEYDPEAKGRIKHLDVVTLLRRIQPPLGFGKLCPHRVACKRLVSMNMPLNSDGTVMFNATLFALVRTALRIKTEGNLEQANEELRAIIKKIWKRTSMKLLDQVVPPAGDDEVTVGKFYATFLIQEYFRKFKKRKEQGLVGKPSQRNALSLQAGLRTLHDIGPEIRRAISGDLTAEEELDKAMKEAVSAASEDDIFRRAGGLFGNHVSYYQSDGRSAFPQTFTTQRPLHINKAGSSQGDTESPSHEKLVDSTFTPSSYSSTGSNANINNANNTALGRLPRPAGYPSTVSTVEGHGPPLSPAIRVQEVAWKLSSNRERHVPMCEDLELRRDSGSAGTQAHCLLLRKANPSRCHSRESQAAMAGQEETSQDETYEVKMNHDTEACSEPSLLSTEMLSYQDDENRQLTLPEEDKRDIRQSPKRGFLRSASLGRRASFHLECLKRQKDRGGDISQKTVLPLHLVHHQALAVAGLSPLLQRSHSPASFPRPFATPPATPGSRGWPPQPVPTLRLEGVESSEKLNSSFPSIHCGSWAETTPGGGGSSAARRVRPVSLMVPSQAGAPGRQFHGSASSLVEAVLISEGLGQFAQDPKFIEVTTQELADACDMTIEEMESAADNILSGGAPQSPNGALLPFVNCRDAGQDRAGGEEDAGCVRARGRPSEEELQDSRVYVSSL
The target in assay [5] is T2, Estrogen receptor (Homo sapiens, UniProt P03372).
T2 sequence (P03372 whole entry): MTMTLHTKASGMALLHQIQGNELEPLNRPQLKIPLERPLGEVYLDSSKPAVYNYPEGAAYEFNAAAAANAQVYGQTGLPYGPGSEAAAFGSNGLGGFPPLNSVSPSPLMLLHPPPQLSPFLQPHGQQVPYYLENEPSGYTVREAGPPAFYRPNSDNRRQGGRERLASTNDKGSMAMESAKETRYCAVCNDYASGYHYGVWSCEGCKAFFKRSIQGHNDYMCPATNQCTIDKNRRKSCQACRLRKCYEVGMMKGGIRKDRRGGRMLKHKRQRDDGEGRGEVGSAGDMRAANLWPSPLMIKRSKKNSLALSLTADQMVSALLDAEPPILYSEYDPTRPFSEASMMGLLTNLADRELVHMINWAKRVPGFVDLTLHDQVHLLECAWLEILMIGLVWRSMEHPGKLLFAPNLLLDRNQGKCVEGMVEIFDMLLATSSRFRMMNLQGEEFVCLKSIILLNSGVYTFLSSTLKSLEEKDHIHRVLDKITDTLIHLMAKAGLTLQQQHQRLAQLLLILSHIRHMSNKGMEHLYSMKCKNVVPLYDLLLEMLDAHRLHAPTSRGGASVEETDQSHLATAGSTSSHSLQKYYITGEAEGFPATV
The class given is functional.

For assay [6], the target named is T2, Estrogen receptor. The class given is functional. The source holds these as a separate data set.
Assay [7] addresses Epidermal growth factor receptor (Homo sapiens, UniProt P00533). The class given is functional.
Further: assay procedure not described here.

Chain of Epidermal growth factor receptor (P00533 whole entry): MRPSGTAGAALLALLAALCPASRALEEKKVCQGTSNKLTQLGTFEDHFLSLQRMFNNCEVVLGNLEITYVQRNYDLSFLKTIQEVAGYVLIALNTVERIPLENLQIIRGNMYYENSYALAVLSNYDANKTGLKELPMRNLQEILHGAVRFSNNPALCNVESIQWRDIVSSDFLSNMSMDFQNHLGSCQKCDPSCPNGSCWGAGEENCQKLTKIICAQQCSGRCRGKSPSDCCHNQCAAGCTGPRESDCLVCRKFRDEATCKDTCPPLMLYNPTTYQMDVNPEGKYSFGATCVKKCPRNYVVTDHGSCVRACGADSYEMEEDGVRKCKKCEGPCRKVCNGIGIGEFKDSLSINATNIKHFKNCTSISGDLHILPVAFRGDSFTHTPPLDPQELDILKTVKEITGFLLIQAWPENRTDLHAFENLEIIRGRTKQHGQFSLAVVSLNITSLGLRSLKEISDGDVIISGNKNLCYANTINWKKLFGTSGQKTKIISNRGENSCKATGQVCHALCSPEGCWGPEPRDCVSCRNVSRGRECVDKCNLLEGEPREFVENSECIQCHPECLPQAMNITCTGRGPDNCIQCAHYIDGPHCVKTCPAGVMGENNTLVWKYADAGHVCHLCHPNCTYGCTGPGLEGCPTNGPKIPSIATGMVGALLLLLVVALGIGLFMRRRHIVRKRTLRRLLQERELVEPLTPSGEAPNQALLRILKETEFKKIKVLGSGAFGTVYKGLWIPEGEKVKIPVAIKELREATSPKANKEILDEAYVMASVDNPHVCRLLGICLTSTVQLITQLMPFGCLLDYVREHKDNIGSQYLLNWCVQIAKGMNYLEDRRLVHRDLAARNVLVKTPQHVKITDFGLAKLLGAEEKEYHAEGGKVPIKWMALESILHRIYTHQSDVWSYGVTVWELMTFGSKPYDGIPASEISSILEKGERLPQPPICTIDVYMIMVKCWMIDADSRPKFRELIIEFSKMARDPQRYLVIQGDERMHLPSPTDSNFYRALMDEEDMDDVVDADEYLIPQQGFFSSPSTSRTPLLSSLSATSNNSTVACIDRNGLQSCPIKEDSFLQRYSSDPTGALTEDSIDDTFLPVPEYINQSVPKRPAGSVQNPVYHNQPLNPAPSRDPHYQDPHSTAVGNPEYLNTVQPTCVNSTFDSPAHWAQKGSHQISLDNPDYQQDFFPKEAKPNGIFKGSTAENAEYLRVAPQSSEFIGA

One may read the AC50 as the midpoint of the concentration-response curve, whichever way the signal moves. For `C[N+]1(C)CCC(=C(c2ccccc2)c2ccccc2)CC1`, the concentration at half-maximal activity (AC50) in assay [1] is above 30 µM; in assay [2], 0.12 µM.

For `CNCCc1ccc(OC(=O)C(C)C)c(OC(=O)C(C)C)c1` [IBOPAMINE], the half-maximal activity concentration (AC50) in assay [3] was above 30 µM.

As to `Cc1cccc(C)c1NC(=O)CC12CCCN1CCC2` [PILSICAINIDE], the concentration at half-maximal activity (AC50) in assay [4] is above 50 µM. Turning to `CC(C)c1cccc(C(C)C)c1O` [PROPOFOL], the half-maximal activity concentration (AC50) in assay [5], in assay [6] and in assay [7] was above 30 µM throughout.
